In US20190209506A1, “METHODS OF REDUCING OR PREVENTING OXIDATION OF LDL OR LIPID MEMBRANES IN A SUBJECT IN NEED THEREOF” (Amarin Pharmaceuticals Ireland Limited, priority 2018, published 2019):

Legend:
[1] = test system: HUVECs; test: NO and ONOO^− release from HUVECs exposed to oxLDL, nanosensors (Example 8); assay type: cell-based, human; settings: ECs exposed to oxLDL; compared to vehicle
Procedure: Human umbilical vein endothelial cells (HUVECs) were isolated into primary cultures from female donors by Clonetics (San Diego, Calif.) and purchased as proliferating cells. All cell culture donors were healthy, with no pregnancy or prenatal complications. […] The confluent cells (4 to 5×10^5 cells/35 mm dish) were placed with minimum essential medium containing 3 mM L-arginine and 0.1 mM BH4 [(6R)-5,6,7,8-tetrahydrobiopterin]. Before experimental use, the cells (from second or third passage) were rinsed twice with Tyrode-HEPES buffer with 1.8 mM CaCl2.
Plasma was immediately separated by centrifugation at 3,000 g for 10 minutes at 4° C.
Tris-NaCl buffer was added to the dialyzed LDL to adjust the protein concentration to 30 mg/mL. A 1-mL aliquot of 20 μM CuSO4 was added to 1 mL of dialyzed normal LDL.
Concurrent measurements of NO and ONOO^− were performed with tandem electrochemical nanosensors combined into one working unit with a total diameter of 200-400 nm. Their design was based on previously developed and chemically modified carbon-fiber technology. […]
The amperometric method (with a response time of 0.1 ms) provides a quantitative signal (current) that is directly proportional to changes (from basal levels) in NO or ONOO^− concentration. […] Basal NO or ONOO^− levels were measured by differential pulse voltammetry in separate experiments. […]

[2] = test system: human sdLDL; test: Copper-induced sdLDL oxidation (Example 12); assay type: biochemical; settings: 10.0 μM; copper-induced oxidation 1 hour
Procedure: All samples, with the exception of non-oxidized sdLDL controls, were subjected to copper-induced oxidation for 1 hour. Human umbilical vein endothelial cells (HUVECs) were incubated with the various sdLDL samples, stimulated with calcium, and monitored for nitric oxide (NO) and peroxynitrite (ONOO^−) release using nanosensor technology.

[3] = Membrane cholesterol domain structural integrity, x-ray diffraction (Example 9); settings: C/P 1.5:1
Procedure: Multilamellar vesicles (MLVs) were prepared as binary mixtures that include palmitoyloleoylphosphatidylcholine (POPC) (1.0 mg total phospholipid per sample) and cholesterol at an elevated cholesterol-to-phospholipid (C/P) mole ratio of 1.5:1. […] Samples were shell-dried under nitrogen gas and placed under vacuum for 3 hours to remove residual solvent at room temperature. After desiccation, each sample was resuspended in saline buffer (0.5 mM HEPES, 154 mM NaCl, pH 7.3) to yield a final phospholipid concentration of 2.5 mg/mL. Lipid suspensions were then vortexed for 3 minutes at ambient temperature to form MLVs.
Briefly, a 100 μL aliquot of each MLV preparation (containing 250 μg MLV) was transferred to a Lucite® sedimentation cell fitted with an aluminum foil substrate designed to collect MLVs into a single membrane pellet upon centrifugation. Samples were then loaded into a Sorvall AH-629 swinging bucket rotor (DuPont Corp., Wilmington, Del.) and centrifuged at 35,000 g, 5° C., for 90 minutes.
After centrifugal orientation, sample supernatants were aspirated and aluminum foil substrates, each supporting a single membrane pellet, were removed from the sedimentation cells. Sample pellets were dried for 5-10 minutes at ambient conditions, mounted onto curved glass supports, and placed in hermetically-sealed, brass or glass containers (for immediate analysis or temporary storage, respectively). All x-ray diffraction experiments were conducted at 20° C., 74% relative humidity. The latter was established by exposing membrane samples to saturated solutions of […] (K2C4H4O6.½H2O) for at least 1 hour prior to experimental analysis.
Oriented membrane samples were aligned at grazing incidence with respect to a collimated, mono-chromatic CuKα x-ray beam (Kα1 and Kα2 unresolved; λ=1.54 Å) produced by a Rigaku Rotaflex RU-200, high-brilliance microfocus generator (Rigaku-MSC, The Woodlands, Tex.) as previously described (Mason et al., Biophys. J., vol. 55(4), pages 769-778 (1989)). The samples were initially subjected to x-ray diffraction analysis at least 12 hours after formation of the membrane pellets and retested for up to several days. Analytical x-rays were generated by electron bombardment of a rotating copper anode and are filtered through a thin nickel foil to provide monochromatic radiation (λ=1.54 Å). Collimation of the x-ray beam was achieved using a single Franks mirror. Diffraction data were collected on a one-dimensional, position-sensitive electron detector (Hecus X-ray Systems, Graz, Austria) at a sample-to-detector distance of 150 mm from the sample site.
The d-space for any given membrane multi bilayer is a measurement of the unit cell periodicity of the membrane lipid bilayer (e.g., the distance from the center of one lipid bilayer to the next including surface hydration), and is calculated from Bragg's Law, hλ=2d sin θ, where h is the diffraction order, λ is the wavelength of the x-ray radiation (1.54 Å), d is the membrane lipid bilayer unit cell periodicity, and θ is the Bragg angle equal to one-half the angle between the incident beam and scattered beam.
The presence of cholesterol domains in a given membrane sample results in the production of distinct Bragg (diffraction) peaks having singular periodicity values of 34 and 17 Å (typically referred to as first- and second-order cholesterol domain peaks). Under the specific temperature and relative humidity conditions established for these experiments, the second-order, 17 Å cholesterol domain peak was well-delineated from other, neighboring cholesterol and phospholipid diffraction peaks and was thus used to quantitate relative cholesterol domain peak intensity. Routines written in Origin 8.6 (OriginLab Corporation, Northampton, Mass.) were used to determine total peak area (associated with all diffraction peaks in a given pattern) against which the second-order cholesterol domain peak was normalized.

[4] = LOOH formation in membrane vesicles, EPA dose dependence (Example 18); assay type: biochemical; settings: after four hours
From the text: Iodometric analyses were used to measure LOOH formation in membrane vesicles reconstituted as binary mixtures of cholesterol and dilinoleoyl phosphatidylcholine.

IC50 ([4]; read-out: half-maximum concentration of LOOH inhibition): ~6 µM
SMILES: CC/C=C\C/C=C\C/C=C\C/C=C\C/C=C\CCCC(=O)O [EPA, cis-5,8,11,14,17-eicosapentaenoic acid]
increase in NO release [1]: 45%
reduction of sdLDL oxidation compared to vehicle [2]: > 90%
% change Vs control (cholesterol domain peak intensity) ([3]; D/P mole ratio 1:30): −65.5 ± 17.1%
Relative Cholesterol Domain Peak Intensity ([3]; D/P mole ratio 1:30): 14.6±5
reduction in cholesterol domain peaks compared to vehicle ([3]; D/P mole ratio 1:30): 65%
% change (vs. Control) ([3]; D/P mole ratio 1:60): −30.2 ± 27.9%
Relative Cholesterol Domain Peak Intensity ([3]; D/P mole ratio 1:60): 29.5 ± 10.9
% change (vs. Control) ([3]; D/P mole ratio 1:90): −15.0 ± 12.6%
Relative Cholesterol Domain Peak Intensity ([3]; D/P mole ratio 1:90): 36.0 ± 3.1
inhibition of LOOH formation ([4]; 1.0 μM, 10 μM copper sulfate): 6%
inhibition of LOOH formation ([4]; maximum concentration (range 1.0 to 10.0 μM)): 74%
